B1: recombinant IL-9: Recombinant IL-9 cytokine added to IL-9ko mice in the 4T1 lung metastasis model (protein, UniProt P15247 19-144, looked up)
Interleukin-9: QRCSTTWGIRDTNYLIENLKDDPPSKCSCSGNVTSCLCLSVPTDDCTTPCYREGLLQLTNATQKSRLLPVFHRVKRIVEVLKNITCPSFSCEKPCNQTMAGNTLSFLKSLLGTFQKTEMQRQKSRP

What was measured:
CD4^+ T cells = test: IFNγ ELISpot assay of enriched T cells; type: cell-based, mice; conditions: CD4^+ T cells plus tumor cell lines, no syngeneic antigen-presenting cells; positive control
Description: 1×10^5 4T1 splenocytes were co cultured with either 5×10^4 4T1 or TUBO cells. 5×10^4 4T1 lymphocytes were co cultured with either 2.5×10^4 4T1 or TUBO cells, following the manufacturers' instructions. CD4^+ and CD8^+ T cells were enriched from the spleens of naïve and 4T1-bearing WT and IL-9ko mice using a negative isolation kit (Invitrogen, Carlsbad Calif.). 1×10^5 T cells were co-cultured with 2.5×10^4 4T1 cells or with BM185, a non-specific control tumor line for 40 hours. Each experimental condition was executed in biological triplicates, which in turn comprised triplicate wells. Manufacturer's instructions were followed to reveal INFγ positive spots using the interferon gamma ELISpot kit from Mabtech (cat #3321-2HW-Plus). The plates were imaged and evaluated by ZellNet Consulting, Inc. (Fort Lee N.J.), and result expressed as average of triplicate spots per condition. Phorbol 12-myristate 13-acetate (PMA) was used as a positive control of cell activation.
These cells were co-cultured with 4T1 or BM185 cells, a BALB/c background murine leukemia cell line used here as a negative control (FIG. 4C). […]

4T1 cells = test: Experimental metastasis model, tail vein injection of 4T1 cells, foci in the lung; type: in vivo; conditions: IL-9ko mice, 1×10^5 4T1 cells tail vein; IL-9ko without IL-9: 3, WT: 87; p=0.043
Description: Since few IL-9ko mice that developed 4T1 tumors never had evidence of macro metastases in the lungs, an experimental metastasis model was used to verify whether IL-9 plays a role in 4T1 seeding in the lung. […] Addition of recombinant IL-9 led to enhanced 4T1 seeding in the lungs of IL-9ko mice (an average of 13 foci per lung) (p=0.043, FIGS. 7A and 7B).

| Molecule | IFNγ^+ spots (CD4^+ T cells) | average foci per lung (4T1 cells) [foci per lung] |
| --- | --- | --- |
| CCCCCCCCCCCCCC(=O)O[C@@H]1[C@@H](C)[C@@]2(O)[C@@H](C=C(CO)C[C@]3(O)C(=O)C(C)=C[C@@H]23)[C@@H]2C(C)(C)[C@]12OC(C)=O [PMA, Phorbol 12-myristate 13-acetate] | produced IFNγ^+ spots only if exposed to PMA |  |
| B1 |  | 13 |

Source: patent publication US10166292B2, “Blocking IL-9 signaling in conjunction with chemotherapy to treat cancer” (Mayo Foundation for Medical Education and Research, priority 2014, dated 2019)
